Experiment [1] concerns IL-17 production by CD4 T cells. Put plainly: Human Th17 Assay. In kind it is cell-based. The note with it: 3 days. The text has this: The human Th17 assay tests the effect of RORγt modulatory compounds on IL-17 production by CD4 T cells under conditions which favor Th17 differentiation. Total CD4^+ T cells were isolated from the peripheral blood mononuclear cells (PBMC) of healthy donors using a CD4^+ T cell isolation kit II, following the manufacturer's instructions (Miltenyi Biotec). Cells were resuspended in a medium of RPMI-1640 supplemented with 10% fetal bovine serum, penicillin, streptomycin, glutamate, and β-mercaptoethanol and were added to 96-well plates at 1.5×10^5 per 100 μL per well. 50 μL of compound at titrated concentrations in DMSO were added into each well at final DMSO concentration at 0.2%. Cells were incubated for 1 hour, then 50 μL of Th17 cell differentiation medium was added to each well. The final concentrations of antibodies and cytokines (R&D Systems) in differentiation medium were: 3×10^6/mL anti-CD3/CD28 beads (prepared using human T cell activation/expansion kit, Miltenyi Biotec), 10 μg/mL anti-IL4, 10 μg/mL anti-IFNγ, 10 ng/mL IL1β, 10 ng/mL IL23, 50 ng/mL IL6, 3 ng/mL TGFβ and 20 U/mL IL2. Cells were cultured at 37° C. and 5% CO2 for 3 days. Supernatants were collected and the accumulated IL-17 in culture was measured by using MULTI-SPOT® Cytokine Plate following manufacture's instruction (Meso Scale Discovery). The plate was read using Sector Imager 6000, and IL-17 concentration was extrapolated from the standard curve. The IC50s were determined by GraphPad.

The target in experiment [2] is human RORγt LBD (Homo sapiens (Human), UniProt P51449). Briefly: RORγt Reporter Assay. It counts as cell-based. As to conditions: for IC50 / RORγt reporter Assay, % inhibition @ 6 μM: HEK293T cells; for inhibition at 6 µM: HEK-293T, read-out: RORγt reporter Assay, % inhibition @ 6 μM, HEK293T cells, 6 μM. The text has this: A reporter assay was used to test functional activity of RORγt modulatory compounds on transcriptional activation driven by the RORγt LBD. Cells used in the assay were co-transfected with two constructs. The first construct, pBIND-RORγt LBD, contained the wild type human RORγt LBD fused to the DNA binding domain of the GAL4 protein. The second construct, pGL4.31 (Promega Cat no. C935A), contained multiple GAL4 responsive DNA elements upstream of firefly luciferase. […] The mutant construct was called pBIND-RORγt-AF2.
Sequence of human RORγt LBD (P51449 258-518): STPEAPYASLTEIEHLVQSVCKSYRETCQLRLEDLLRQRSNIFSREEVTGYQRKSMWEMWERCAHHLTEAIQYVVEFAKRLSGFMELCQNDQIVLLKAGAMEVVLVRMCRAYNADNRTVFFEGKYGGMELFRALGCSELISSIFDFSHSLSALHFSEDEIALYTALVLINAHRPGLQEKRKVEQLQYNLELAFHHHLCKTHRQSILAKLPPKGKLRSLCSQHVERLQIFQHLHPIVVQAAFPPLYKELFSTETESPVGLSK
The pBIND vector contains the GAL4 DNA Binding Domain (GAL4 DBD) and the renilla luciferase gene under control of the SV40 promoter. Renilla luciferase expression serves as a control for transfection efficiency and cell viability.
The reporter assay was performed by transiently transfecting HEK293T cells with 5 μg of pBIND-RORγt LBD or pBIND-RORγt LBD-AF2 and 5 μg pGL4.31 (Promega Cat no. C935A) using Fugene 6 (Invitrogen Cat no. E2691) at a 1:6 ratio of DNA:Fugene 6 in a T-75 flask in which cells were at least 80% confluent. Twenty four hours after bulk transfection, cells were plated into 96-well plates at 50,000 cells/well in phenol-red free DMEM containing 5% Lipid Reduced FCS and Pen/Strep. Six hours after plating, cells were treated with compounds for 24 hours. Media was removed and cells were lysed with 50 μL 1× Glo Lysis Buffer (Promega). Dual Glo Luciferase Reagent (50 μL/well) was then added and firefly luciferase luminescence was read on an Envision after a ten minute incubation. Finally, Stop and Glo reagent (50 μL/well) was added and renilla luciferase luminescence was read on an Envision after a ten minute incubation. To calculate the effect of compounds on RORγt activity, the ratio of firefly to renilla luciferase was determined and plotted against compound concentration. Agonist compounds increase RORγt-driven luciferase expression, and antagonist or inverse agonist compounds decrease luciferase expression.
For orientation: Reporter assays use an easily measured gene product as a stand-in for the process of interest.

Molecules are shown by their SMILES.

As a reminder, the IC50 is the concentration that inhibits the measured activity by half. Read a low IC50 as higher potency. With `COc1nc2ccc(C(C)(O)c3ccc(C)nc3C)cc2c(Cl)c1Cc1ccc(C(F)(F)F)cc1` (single isomer, unassigned) [Example 13c, 1-(4-Chloro-2-methoxy-3-(4-(trifluoromethyl)benzyl)quinolin-6-yl)-1-(2,6-dimethylpyridin-3-yl)ethanol], half-maximal inhibition in experiment [1] (IC50) was put at 60 nM. In addition, in experiment [2], the midpoint of inhibition, the IC50, lay at 46 nM and the “RORγt reporter Assay, % inhibition @ 6 μM” value is 100%.
In general, inhibition refers to the drop in the measured response relative to a control, in per cent. As to `COc1nc2ccc(C(C)(O)c3ccc(C)nc3C)cc2c(Cl)c1Cc1ccc(C(F)(F)F)cc1` (single isomer, unassigned) [Example 13b, 1-(4-Chloro-2-methoxy-3-(4-(trifluoromethyl)benzyl)quinolin-6-yl)-1-(2,6-dimethylpyridin-3-yl)ethanol], the IC50 came to 170 nM in experiment [1] and 200 nM in experiment [2]. Besides, the inhibition at 6 µM in experiment [2] stood at 101%.
Regarding `COc1nc2ccc(C(C)(O)c3oc(C)nc3C)cc2c(Cl)c1Cc1ccc(C(F)(F)F)cc1` (single isomer, unassigned) [Example 10b, 1-(4-Chloro-2-methoxy-3-(4-(trifluoromethyl)benzyl)quinolin-6-yl)-1-(2,4-dimethyloxazol-5-yl)ethanol], it took 640 nM to reach half-maximal inhibition in experiment [1] (Homo sapiens, CD4+ T, 72 h) (IC50). Also, in experiment [2], the IC50 is 260 nM and the “RORγt reporter Assay, % inhibition @ 6 μM” value worked out at 96%.
For `COc1nc2ccc(C(C)(O)c3cnc(C)n3C)cc2c(Cl)c1Cc1ccc(C(F)(F)F)cc1` (single isomer, unassigned) [Example 12b, 1-(4-Chloro-2-methoxy-3-(4-(trifluoromethyl)benzyl)quinolin-6-yl)-1-(1,2-dimethyl-1H-imidazol-5-yl)ethanol], the IC50 in experiment [1] came out at 2100 nM. Also, in experiment [2], half-maximal inhibition (IC50) required 500 nM and the inhibition at 6 µM was determined as 102%.
As to `COc1nc2ccc(C(C)(O)c3cnnn3C)cc2c(Cl)c1Cc1ccc(C(F)(F)F)cc1` (single isomer, unassigned) [Example 11b, 1-(4-Chloro-2-methoxy-3-(4-(trifluoromethyl)benzyl)quinolin-6-yl)-1-(1-methyl-1H-1,2,3-triazol-5-yl)ethanol], inhibition in experiment [1] was half-maximal at 870 nM (IC50). In experiment [2], the IC50 was 210 nM and the inhibition at 6 µM was found to be 98%.
Take `C#CC(O)(c1ccc2nc(OC)c(Cc3ccc(C(F)(F)F)cc3)c(Cl)c2c1)C1CN(C(C)=O)C1` (single isomer, unassigned) [Example 7c, 1-(3-(1-(4-chloro-2-methoxy-3-(4-(trifluoromethyl)benzyl)quinolin-6-yl)-1-hydroxyprop-2-yn-1-yl)azetidin-1-yl)ethanone]: the IC50 turned out to be 320 nM in experiment [1] (Homo sapiens, CD4+ T, 72 h) and 98 nM in experiment [2]. The “RORγt reporter Assay, % inhibition @ 6 μM” value in experiment [2] worked out at 94%.
The molecule `COc1nc2ccc(C(C)(O)c3cnc(C)n3C)cc2c(Cl)c1Cc1ccc(C(F)(F)F)cc1` (single isomer, unassigned) [Example 12c, 1-(4-Chloro-2-methoxy-3-(4-(trifluoromethyl)benzyl)quinolin-6-yl)-1-(1,2-dimethyl-1H-imidazol-5-yl)ethanol] had an IC50 in experiment [1] of 80 nM. Further, in experiment [2], the IC50 was 41 nM and the “RORγt reporter Assay, % inhibition @ 6 μM” value is on record as 102%.
Regarding `C#CC(O)(c1ccc2nc(OC)c(Cc3ccc(C(F)(F)F)cc3)c(Cl)c2c1)c1cnc(C)n1C` (single isomer, unassigned) [Example 14c, 1-(4-Chloro-2-methoxy-3-(4-(trifluoromethyl)benzyl)quinolin-6-yl)-1-(1,2-dimethyl-1H-imidazol-5-yl)prop-2-yn-1-ol], the IC50 was 290 nM in experiment [1] and 310 nM in experiment [2]. Besides, in experiment [2], the “RORγt reporter Assay, % inhibition @ 6 μM” value worked out at 94%.
`COc1nc2ccc(C(C)(O)c3oc(C)nc3C)cc2c(Cl)c1Cc1ccc(C(F)(F)F)cc1` (single isomer, unassigned) [Example 10c, 1-(4-Chloro-2-methoxy-3-(4-(trifluoromethyl)benzyl)quinolin-6-yl)-1-(2,4-dimethyloxazol-5-yl)ethanol]: the IC50 in experiment [1] (Homo sapiens, CD4+ T, 72 h) turned out to be 550 nM; in experiment [2], 330 nM. Besides, the inhibition at 6 µM in experiment [2] is 95%.

The values above are taken from patent US9346782B2, “Alkyl linked quinolinyl modulators of RORγt” (Janssen Pharmaceutica NV, priority 2013, dated 2016).
